These results are taken from patent US8586617B2, “Aminomethyl-4-imidazoles” (Hoffmann-La Roche Inc., priority 2006, dated 2013).

SMILES strings stand for the structures.

One assay deals with TAAR1 (Mus musculus (Mouse), UniProt Q923Y8). Nature of the assay: TAAR1 radioligand binding assay ([3H]-rac-2-(1,2,3,4-tetrahydro-1-naphthyl)-2-imidazoline, membranes of stably transfected HEK293 cells).
TAAR1, sequence (Q923Y8 whole entry): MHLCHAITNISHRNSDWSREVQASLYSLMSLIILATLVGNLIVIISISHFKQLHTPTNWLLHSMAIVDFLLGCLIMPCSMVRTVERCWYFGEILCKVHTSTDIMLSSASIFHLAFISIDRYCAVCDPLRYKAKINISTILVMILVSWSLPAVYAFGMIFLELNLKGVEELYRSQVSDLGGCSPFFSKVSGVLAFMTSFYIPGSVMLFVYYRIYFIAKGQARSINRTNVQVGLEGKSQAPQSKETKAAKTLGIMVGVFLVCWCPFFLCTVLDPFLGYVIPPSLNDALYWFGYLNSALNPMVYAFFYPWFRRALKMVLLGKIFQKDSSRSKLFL
Settings: not given
What is called Ki is the dissociation constant of the complex between target and ligand, obtained from inhibition or displacement. Molecule `CCN(Cc1cnc[nH]1)c1cccc(C(F)(F)F)n1` [Example 251, Ethyl-(1H-imidazol-4-ylmethyl)-(6-trifluoromethyl-pyridin-2-yl)-amine] returned a Ki of 0.009 µM.

The assay is the same for the next values; noted with them: read-out: Ki (μM) mouse; mouse TAAR1; radioligand [3H]-rac-2-(1,2,3,4-tetrahydro-1-naphthyl)-2-imidazoline at 60 nM; 4° C., 30 minutes.
`CC(C)N(Cc1cnc[nH]1)c1cccc(OC(F)(F)F)c1` [Example 115, (3H-Imidazol-4-ylmethyl)-isopropyl-(3-trifluoromethoxy-phenyl)-amine]: the Ki stood at 0.009 µM. Same read-out and setting: the result for `COc1cc(N(Cc2cnc[nH]2)C(C)C)ccc1Cl` [Example 204, (4-Chloro-3-methoxy-phenyl)-(3H-imidazol-4-ylmethyl)-isopropyl-amine] reads 0.005 µM; that for `CC(C)N(Cc1cnc[nH]1)c1cccc(Br)c1` [Example 242, (3-Bromo-phenyl)-(3H-imidazol-4-ylmethyl)-isopropyl-amine], 0.001 µM; that for `Brc1ccc(NCc2cnc[nH]2)cc1Br` [Example 279, (3,4-Dibromo-phenyl)-(1H-imidazol-4-ylmethyl)-amine], 0.004 µM. As to `CCN(Cc1cnc[nH]1)c1ccc(Cl)c(OC)c1` [Example 324, (4-Chloro-3-methoxy-phenyl)-ethyl-(1H-imidazol-4-ylmethyl)-amine], the Ki was found to be 0.002 µM. The same measure, in the same setting: with `Fc1ccc(NCc2cnc[nH]2)cc1Cl` [Example 281, (3-Chloro-4-fluoro-phenyl)-(1H-imidazol-4-ylmethyl)-amine] the figure was 0.004 µM; with `CC(C)N(Cc1cnc[nH]1)c1ccc(F)c(F)c1` [Example 77, (3,4-Difluoro-phenyl)-(3H-imidazol-4-ylmethyl)-isopropyl-amine], 0.0053 µM. The same measure, in the same setting: with `Clc1cccc(Oc2cccc(NCc3cnc[nH]3)c2)c1` [Example 200, [3-(3-Chloro-phenoxy)-phenyl]-(3H-imidazol-4-ylmethyl)-amine] the figure was 0.0028 µM; with `CC(C)N(Cc1cnc[nH]1)c1cccc(Br)n1` [Example 244, (6-Bromo-pyridin-2-yl)-(3H-imidazol-4-ylmethyl)-isopropyl-amine], 0.004 µM. On the same count and under the same terms, with `FC(F)(F)Oc1ccc(NCc2cnc[nH]2)cc1Cl` [Example 327, (3-Chloro-4-trifluoromethoxy-phenyl)-(1H-imidazol-4-ylmethyl)-amine] the figure was 0.002 µM; with `Cc1ccc(N(Cc2cnc[nH]2)C(C)C)cc1Cl` [Example 128, (3-Chloro-4-methyl-phenyl)-(1H-imidazol-4-ylmethyl)-isopropyl-amine], 0.0023 µM.

As to `CCN(Cc1cnc[nH]1)c1ccc(Oc2ccc(Cl)cc2)c(Cl)c1` [Example 139, [3-Chloro-4-(4-chloro-phenoxy)-phenyl]-ethyl-(1H-imidazol-4-ylmethyl)-amine], the Ki was 0.0039 µM. Same read-out and setting: the result for `CC(C)c1cccc(NCc2cnc[nH]2)c1` [Example 228, (3H-Imidazol-4-ylmethyl)-(3-isopropyl-phenyl)-amine] reads 0.002 µM; that for `Fc1cc(F)cc(NCc2cnc[nH]2)c1` [Example 277, (3,5-Difluoro-phenyl)-(1H-imidazol-4-ylmethyl)-amine], 0.006 µM.

With `CC(C)N(Cc1cnc[nH]1)c1cccc(OCc2ccccc2)c1` [Example 114, (3-Benzyloxy-phenyl)-(3H-imidazol-4-ylmethyl)-isopropyl-amine], the Ki came out at 0.0041 µM. The same measure, in the same setting: with `CCN(Cc1cnc[nH]1)c1ccc(OC(F)(F)F)c(Cl)c1` [Example 333, (3-Chloro-4-trifluoromethoxy-phenyl)-ethyl-(1H-imidazol-4-ylmethyl)-amine] the figure was 0.001 µM; with `Cc1cccc(N(Cc2cnc[nH]2)C(C)C)c1` [Example 26, (3H-Imidazol-4-ylmethyl)-isopropyl-m-tolyl-amine], 0.0034 µM.

As for `CC(C)N(Cc1cnc[nH]1)c1ccc(F)c(Br)c1` [Example 170, (3-Bromo-4-fluoro-phenyl)-(3H-imidazol-4-ylmethyl)-isopropyl-amine], the Ki worked out at 0.0025 µM. For `CC(C)N(Cc1cnc[nH]1)c1cccc(C(F)(F)F)c1` [Example 27, (3H-Imidazol-4-ylmethyl)-isopropyl-(3-trifluoromethyl-phenyl)-amine], the Ki was 0.0023 µM. On the same count and under the same terms, with `CC(C)N(Cc1cnc[nH]1)c1ccc(OCc2ccccc2)c(Cl)c1` [Example 133, (4-Benzyloxy-3-chloro-phenyl)-(1H-imidazol-4-ylmethyl)-isopropyl-amine] the figure was 0.0077 µM; with `CC(C)N(Cc1cnc[nH]1)c1ccc(Cl)c(C(F)(F)F)c1` [Example 31, (4-Chloro-3-trifluoromethyl-phenyl)-(3H-imidazol-4-ylmethyl)-isopropyl-amine], 0.0045 µM. Take `Clc1ccc(CN(Cc2cnc[nH]2)c2cccc(Cl)c2)cc1` [Example 20, (4-Chloro-benzyl)-(3-chloro-phenyl)-(1H-imidazol-4-ylmethyl)-amine]: the Ki stood at 0.0059 µM. Regarding `FC(F)(F)c1cc(Br)cc(NCc2cnc[nH]2)c1` [Example 226, (3-Bromo-5-trifluoromethyl-phenyl)-(3H-imidazol-4-ylmethyl)-amine], the Ki was 0.001 µM.

As to `CC(C)N(Cc1cnc[nH]1)c1cc(F)cc(F)c1` [Example 101, (3,5-Difluoro-phenyl)-(3H-imidazol-4-ylmethyl)-isopropyl-amine], the Ki came out at 0.003 µM. On to `CCN(Cc1cnc[nH]1)c1nc(Cl)cc(Cl)n1` [Example 237, (4,6-Dichloro-pyrimidin-2-yl)-ethyl-(1H-imidazol-4-ylmethyl)-amine], for which the Ki came to 0.004 µM. The same measure, in the same setting: with `CC(C)N(Cc1cnc[nH]1)c1ccc(Br)c(Br)c1` [Example 297, (3,4-Dibromo-phenyl)-(1H-imidazol-4-ylmethyl)-isopropyl-amine] the figure was 0.001 µM. As to `CC(C)N(Cc1cnc[nH]1)c1cc(Cl)ccc1F` [Example 78, (5-Chloro-2-fluoro-phenyl)-(3H-imidazol-4-ylmethyl)-isopropyl-amine], the Ki was 0.0052 µM. On the same count and under the same terms, with `Fc1ccc(NCc2cnc[nH]2)cc1Br` [Example 183, (3-Bromo-4-fluoro-phenyl)-(3H-imidazol-4-ylmethyl)-amine] the figure was 0.0051 µM; with `CCN(Cc1cnc[nH]1)c1ccc2ccccc2c1` [Example 82, Ethyl-(3H-imidazol-4-ylmethyl)-naphthalen-2-yl-amine], 0.0012 µM; with `CC(C)N(Cc1cnc[nH]1)c1cccc(COc2ccccc2)c1` [Example 207, (3H-Imidazol-4-ylmethyl)-isopropyl-(3-phenoxymethyl-phenyl)-amine], 0.002 µM. Still for that read-out and setting: the result for `CCN(Cc1cnc[nH]1)c1ccc(Br)c(F)c1` [Example 305, (4-Bromo-3-fluoro-phenyl)-ethyl-(1H-imidazol-4-ylmethyl)-amine] reads 0.002 µM; that for `Fc1cc(Cl)cc(NCc2cnc[nH]2)c1` [Example 179, (3-Chloro-5-fluoro-phenyl)-(1H-imidazol-4-ylmethyl)-amine], 0.0026 µM. Same read-out and setting: with `Fc1cc(NCc2cnc[nH]2)ccc1Br` [Example 181, (4-Bromo-3-fluoro-phenyl)-(1H-imidazol-4-ylmethyl)-amine] the figure was 0.0098 µM; with `CCN(Cc1cnc[nH]1)c1cc(F)cc(Cl)c1` [Example 308, (3-Chloro-5-fluoro-phenyl)-ethyl-(1H-imidazol-4-ylmethyl)-amine], 0.001 µM. In the case of `CC(C)N(Cc1cnc[nH]1)c1cccc(Oc2ccccc2)c1` [Example 123, (3H-Imidazol-4-ylmethyl)-isopropyl-(3-phenoxy-phenyl)-amine], the Ki came to 0.0021 µM. Same read-out and setting: with `Clc1cccc(N(Cc2cnc[nH]2)Cc2ccccc2Cl)c1` [Example 18, (2-Chloro-benzyl)-(3-chloro-phenyl)-(1H-imidazol-4-ylmethyl)-amine] the figure was 0.0039 µM; with `CCN(Cc1cnc[nH]1)c1ccc(F)c(Cl)c1` [Example 312, (3-Chloro-4-fluoro-phenyl)-ethyl-(1H-imidazol-4-ylmethyl)-amine], 0.001 µM; with `Clc1cccc(CN(Cc2cnc[nH]2)c2cccc(Cl)c2)c1` [Example 19, (3-Chloro-benzyl)-(3-chloro-phenyl)-(1H-imidazol-4-ylmethyl)-amine], 0.0077 µM. On the same count and under the same terms, the result for `CC(C)N(Cc1cnc[nH]1)c1cccc(OC(F)(F)C(F)F)c1` [Example 125, (3H-Imidazol-4-ylmethyl)-isopropyl-[3-(1,1,2,2-tetrafluoro-ethoxy)-phenyl]-amine] reads 0.0044 µM. For `Clc1cccc(N(Cc2ccccc2)Cc2cnc[nH]2)c1` [Example 21, Benzyl-(3-chloro-phenyl)-(1H-imidazol-4-ylmethyl)-amine], the Ki was 0.0078 µM.
